In brackets after ≈: the same amount, converted by molar mass.
Assays:
[1] = test system: Candida tropicalis; experiment: Inhibition of chitin synthase extracted from Candida tropicalis ATCC 750 using UDP-GlcNAc as substrate assessed as inhibition rate at 300 ug/ml by TMB based microplate analyzer relative to control; details: dose 300.0 µg/ml
[2] = Inhibition of chitin synthase extracted from Candida tropicalis ATCC 750 using UDP-GlcNAc as substrate assessed as inhibition rate by TMB based microplate analyzer relative to control
[3] = test system: Candida albicans; experiment: Antifungal activity against Candida albicans ATCC 76615 assessed as inhibition of growth incubated for 24 hrs by two-fold serial dilution method; type: functional
[4] = test system: Aspergillus flavus; experiment: Antifungal activity against Aspergillus flavus ATCC 16870 assessed as inhibition of growth incubated for 24 hrs by two-fold serial dilution method; type: functional
[5] = test system: Aspergillus fumigatus; experiment: Antifungal activity against Aspergillus fumigatus GIMCC 3.19 assessed as inhibition of growth incubated for 24 hrs by two-fold serial dilution method; type: functional
[6] = test system: Cryptococcus neoformans; experiment: Antifungal activity against Cryptococcus neoformans ATCC 32719 assessed as inhibition of growth incubated for 24 hrs by two-fold serial dilution method; type: functional
[7] = test system: Candida albicans; experiment: Antifungal activity against drug-resistant Candida albicans ATCC 76615 assessed as inhibition of cell wall synthesis in presence of sorbitol incubated for 24 hrs; type: functional
[8] = test system: Aspergillus flavus; experiment: Antifungal activity against drug-resistant Aspergillus flavus ATCC 16870 assessed as inhibition of cell wall synthesis in presence of sorbitol incubated for 24 hrs; type: functional
[9] = test system: Aspergillus fumigatus; experiment: Antifungal activity against drug-resistant Aspergillus fumigatus GIMCC 3.19 assessed as inhibition of cell wall synthesis in presence of sorbitol incubated for 24 hrs; type: functional
[10] = test system: Cryptococcus neoformans; experiment: Antifungal activity against drug-resistant Cryptococcus neoformans ATCC 32719 assessed as inhibition of cell wall synthesis in presence of sorbitol incubated for 24 hrs; type: functional
[11] = test system: Candida albicans; experiment: Antifungal activity against fluconazole-resistant Candida albicans ATCC 76615 assessed as inhibition of fungal growth incubated for 24 to 72 hrs; type: functional; details: time 24-72 hrs
[12] = test system: Aspergillus flavus; experiment: Antifungal activity against fluconazole-resistant Aspergillus flavus ATCC 16870 assessed as inhibition of fungal growth incubated for 24 to 72 hrs; type: functional; details: time 24-72 hrs
[13] = test system: Aspergillus fumigatus; experiment: Antifungal activity against fluconazole-resistant Aspergillus fumigatus GIMCC 3.19 assessed as inhibition of fungal growth incubated for 24 to 72 hrs; type: functional; details: time 24-72 hrs
[14] = test system: Cryptococcus neoformans; experiment: Antifungal activity against fluconazole-resistant Cryptococcus neoformans ATCC 32719 assessed as inhibition of fungal growth incubated for 24 to 72 hrs; type: functional; details: time 24-72 hrs
[15] = test system: Candida albicans; experiment: Antifungal activity against micafungin-resistant Candida albicans ATCC 76615 assessed as inhibition of fungal growth incubated for 24 to 72 hrs; type: functional; details: time 24-72 hrs
[16] = test system: Candida albicans; experiment: Antifungal activity against Candida albicans ATCC 76615 incubated for 24 hrs by half broth dilution based checkerboard method; type: functional
[17] = test system: Aspergillus flavus; experiment: Antifungal activity against Aspergillus flavus ATCC 16870 incubated for 24 hrs by half broth dilution based checkerboard method; type: functional
[18] = test system: Aspergillus fumigatus; experiment: Antifungal activity against Aspergillus fumigatus GIMCC 3.19 incubated for 24 hrs by half broth dilution based checkerboard method; type: functional
[19] = test system: Cryptococcus neoformans; experiment: Antifungal activity against Cryptococcus neoformans ATCC 32719 incubated for 24 hrs by half broth dilution based checkerboard method; type: functional
[20] = test system: Candida albicans; experiment: Antifungal activity against Candida albicans ATCC 76615 assessed as fluconazole MIC incubated for 24 hrs in presence of fluconazole by half broth dilution based checkerboard method; type: functional
[21] = test system: Aspergillus flavus; experiment: Antifungal activity against Aspergillus flavus ATCC 16870 assessed as fluconazole MIC incubated for 24 hrs in presence of fluconazole by half broth dilution based checkerboard method; type: functional
[22] = test system: Aspergillus fumigatus; experiment: Antifungal activity against Aspergillus fumigatus GIMCC 3.19 assessed as fluconazole MIC incubated for 24 hrs in presence of fluconazole by half broth dilution based checkerboard method; type: functional
[23] = test system: Cryptococcus neoformans; experiment: Antifungal activity against Cryptococcus neoformans ATCC 32719 assessed as fluconazole MIC incubated for 24 hrs in presence of fluconazole by half broth dilution based checkerboard method; type: functional
[24] = test system: Aspergillus fumigatus; experiment: Synergistic antifungal activity against Aspergillus fumigatus GIMCC 3.19 assessed as fractional inhibitory concentration index in presence of fluconazole incubated for 24 hrs by half broth dilution based checkerboard method; type: functional
[25] = test system: Candida albicans; experiment: Synergistic antifungal activity against Candida albicans ATCC 76615 assessed as fractional inhibitory concentration index in presence of fluconazole incubated for 24 hrs by half broth dilution based checkerboard method; type: functional
[26] = test system: Aspergillus flavus; experiment: Synergistic antifungal activity against Aspergillus flavus ATCC 16870 assessed as fractional inhibitory concentration index in presence of fluconazole incubated for 24 hrs by half broth dilution based checkerboard method; type: functional
[27] = test system: Cryptococcus neoformans; experiment: Synergistic antifungal activity against Cryptococcus neoformans ATCC 32719 assessed as fractional inhibitory concentration index in presence of fluconazole incubated for 24 hrs by half broth dilution based checkerboard method; type: functional
[28] = test system: Candida albicans; experiment: Antifungal activity against Candida albicans ATCC 76615 assessed as Polyoxin B MIC incubated for 24 hrs in presence of fluconazole by half broth dilution based checkerboard method; type: functional
[29] = test system: Aspergillus flavus; experiment: Antifungal activity against Aspergillus flavus ATCC 16870 assessed as Polyoxin B MIC incubated for 24 hrs in presence of fluconazole by half broth dilution based checkerboard method; type: functional
[30] = test system: Aspergillus fumigatus; experiment: Antifungal activity against Aspergillus fumigatus GIMCC 3.19 assessed as Polyoxin B MIC incubated for 24 hrs in presence of fluconazole by half broth dilution based checkerboard method; type: functional
[31] = test system: Cryptococcus neoformans; experiment: Antifungal activity against Cryptococcus neoformans ATCC 32719 assessed as Polyoxin B MIC incubated for 24 hrs in presence of fluconazole by half broth dilution based checkerboard method; type: functional
[32] = test system: Candida albicans; experiment: Synergistic antifungal activity against Candida albicans ATCC 76615 assessed as fractional inhibitory concentration index in presence of Polyoxin B incubated for 24 hrs by half broth dilution based checkerboard method; type: functional
[33] = test system: Aspergillus flavus; experiment: Synergistic antifungal activity against Aspergillus flavus ATCC 16870 assessed as fractional inhibitory concentration index in presence of Polyoxin B incubated for 24 hrs by half broth dilution based checkerboard method; type: functional
[34] = test system: Aspergillus fumigatus; experiment: Synergistic antifungal activity against Aspergillus fumigatus GIMCC 3.19 assessed as fractional inhibitory concentration index in presence of Polyoxin B incubated for 24 hrs by half broth dilution based checkerboard method; type: functional
[35] = test system: Cryptococcus neoformans; experiment: Synergistic antifungal activity against Cryptococcus neoformans ATCC 32719 assessed as fractional inhibitory concentration index in presence of Polyoxin B incubated for 24 hrs by half broth dilution based checkerboard method; type: functional

| Compound | inhibition [1] | IC50 [2] | MIC [3] | MIC [4] | MIC [5] | MIC [6] | MIC [7] | MIC [8] | MIC [9] | MIC [10] | MIC [11] | MIC [12] | MIC [13] | MIC [14] | MIC [15] | MIC [16] | MIC [17] | MIC [18] | MIC [19] | MIC [20] | other results |
| --- | --- | --- | --- | --- | --- | --- | --- | --- | --- | --- | --- | --- | --- | --- | --- | --- | --- | --- | --- | --- | --- |
| Cc1ccc(NC(=O)/C=C/C(=O)Nc2ccc3c(c2)NC(=O)C2(CCNC2=O)C3)cc1 (racemic) | 71.4% | 201 µM | 16 µg/mL (≈ 38.2 µM) | 8 µg/mL (≈ 19.1 µM) | 16 µg/mL (≈ 38.2 µM) | 32 µg/mL (≈ 76.5 µM) | 128 µg/mL | 64 µg/mL | 128 µg/mL | 256 µg/mL | 64 µg/mL (≈ 153 µM) | 32 µg/mL (≈ 76.5 µM) | 32 µg/mL (≈ 76.5 µM) | 64 µg/mL (≈ 153 µM) | 64 µg/mL (≈ 153 µM) | 8 µg/mL | 4 µg/mL | 8 µg/mL | 16 µg/mL | 4 µg/mL | MIC [21]: 4 µg/mL; MIC [22]: 4 µg/mL; MIC [23]: 8 µg/mL; fractional inhibitory concentration index (FICI) [24]: 1.5; fractional inhibitory concentration index (FICI) [25]: 1; fractional inhibitory concentration index (FICI) [26]: 2; fractional inhibitory concentration index (FICI) [27]: 1.5; MIC [28]: 8 µg/mL; MIC [29]: 4 µg/mL; MIC [30]: 16 µg/mL; MIC [31]: 16 µg/mL; fractional inhibitory concentration index (FICI) [32]: 1; fractional inhibitory concentration index (FICI) [33]: 2; fractional inhibitory concentration index (FICI) [34]: 1.5; fractional inhibitory concentration index (FICI) [35]: 1.5 |
| O=C(/C=C/C(=O)Nc1cccc2ccccc12)Nc1ccc2c(c1)NC(=O)C1(CCNC1=O)C2 (racemic) | 79.5% | 131 µM | 16 µg/mL (≈ 35.2 µM) | 8 µg/mL (≈ 17.6 µM) | 8 µg/mL (≈ 17.6 µM) | 8 µg/mL (≈ 17.6 µM) | 256 µg/mL | 64 µg/mL | 128 µg/mL | 128 µg/mL | 32 µg/mL (≈ 70.4 µM) | 32 µg/mL (≈ 70.4 µM) | 64 µg/mL (≈ 141 µM) | 32 µg/mL (≈ 70.4 µM) | 32 µg/mL (≈ 70.4 µM) | 4 µg/mL | 2 µg/mL | 2 µg/mL | 2 µg/mL | 8 µg/mL | MIC [21]: 2 µg/mL; MIC [22]: 2 µg/mL; MIC [23]: 2 µg/mL; fractional inhibitory concentration index (FICI) [24]: 1; fractional inhibitory concentration index (FICI) [25]: 1.125; fractional inhibitory concentration index (FICI) [26]: 0.75; fractional inhibitory concentration index (FICI) [27]: 0.5; MIC [28]: 8 µg/mL; MIC [29]: 2 µg/mL; MIC [30]: 2 µg/mL; MIC [31]: 2 µg/mL; fractional inhibitory concentration index (FICI) [32]: 1.25; fractional inhibitory concentration index (FICI) [33]: 0.75; fractional inhibitory concentration index (FICI) [34]: 1; fractional inhibitory concentration index (FICI) [35]: 0.5 |
| O=C(CN1CCC(C(=O)Nc2cccc3ccccc23)CC1)Nc1ccc2c(c1)NC(=O)C1(CCNC1=O)C2 (racemic) | 84% | 99 µM | 16 µg/mL (≈ 30.4 µM) | 8 µg/mL (≈ 15.2 µM) | 8 µg/mL (≈ 15.2 µM) | 32 µg/mL (≈ 60.9 µM) | 256 µg/mL | 128 µg/mL | 512 µg/mL | 512 µg/mL | 32 µg/mL (≈ 60.9 µM) | 64 µg/mL (≈ 122 µM) | 64 µg/mL (≈ 122 µM) | 64 µg/mL (≈ 122 µM) | 32 µg/mL (≈ 60.9 µM) | 16 µg/mL | 8 µg/mL | 8 µg/mL | 2 µg/mL | 1 µg/mL | MIC [21]: 1.5 µg/mL; MIC [22]: 2 µg/mL; MIC [23]: 0.75 µg/mL; fractional inhibitory concentration index (FICI) [24]: 1; fractional inhibitory concentration index (FICI) [25]: 0.75; fractional inhibitory concentration index (FICI) [26]: 0.75; fractional inhibitory concentration index (FICI) [27]: 1; MIC [28]: 16 µg/mL; MIC [29]: 8 µg/mL; MIC [30]: 8 µg/mL; MIC [31]: 32 µg/mL; fractional inhibitory concentration index (FICI) [32]: 0.75; fractional inhibitory concentration index (FICI) [33]: 2; fractional inhibitory concentration index (FICI) [34]: 1.5; fractional inhibitory concentration index (FICI) [35]: 1 |

From ChEMBL document CHEMBL6127079, “Design and synthesis of spiro[pyrrolidine-3,3'-quinoline]-2,2'-dione derivatives as novel antifungal agents targeting chitin synthase” (Eur J Med Chem, 2024)
